These results are taken from PubChem BioAssay (NCI).

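Following 48 hours of exposure in 96-well plates, responses at five concentrations were used to interpolate endpoints linearly. Abbreviation: GI50, concentration required for 50% inhibition of growth. TGI marks complete inhibition of growth.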

Test systems include OVCAR-3 ovarian; MALME-3M melanoma; EKVX NSCLC; HT29 colon; A498 renal; SN12C renal; ACHN renal; HCT-116 colon; HOP-62 NSCLC; KM12 colon.
Test in all cases: inhibition of tumour cell growth, NCI panel, 48 h

Regarding `Cc1ccc(OCC2OC(n3cnc4c(Cl)nc(N)nc43)CC2Oc2ccc(C)cc2)cc1` (stereo not given), the TGI is greater than 63.9 µM with OVCAR-3 ovarian; greater than 85.3 µM with MALME-3M melanoma; greater than 59.3 µM in the assay on EKVX NSCLC; greater than 100 µM with HT29 colon; greater than 100 µM with A498 renal; greater than 100 µM in the assay with SN12C renal. Moreover, the TGI was 40 µM in the assay with ACHN renal, greater than 100 µM in the assay on HCT-116 colon, greater than 52.5 µM with HOP-62 NSCLC and greater than 100 µM in the assay on KM12 colon.
With `CCCCC(=O)c1c(O)nc2sccn2c1=O`, the TGI with OVCAR-3 ovarian, in the assay with MALME-3M melanoma, in the assay with EKVX NSCLC, in the assay with HT29 colon, in the assay on A498 renal and in the assay with SN12C renal was greater than 10 µM in each case. Moreover, the TGI in the assay with ACHN renal, with HCT-116 colon, in the assay with HOP-62 NSCLC and in the assay with KM12 colon was greater than 10 µM each time.
Take `Cc1cc(F)ccc1S(=O)(=O)Nc1cc(-c2c(O)ccc3ccccc23)c(O)c2ccccc12`: the GI50 is 2.67 µM with OVCAR-3 ovarian; 3.27 µM in the assay on MALME-3M melanoma; 1.93 µM in the assay with EKVX NSCLC; 4.09 µM with HT29 colon; 3 µM in the assay on A498 renal; 2.8 µM with SN12C renal. Besides, the GI50 with ACHN renal was 2.44 µM; in the assay with HCT-116 colon it was 2.7 µM; in the assay with HOP-62 NSCLC, 3.27 µM; in the assay with KM12 colon, 1.93 µM. The TGI worked out at 10.3 µM in the assay with OVCAR-3 ovarian; 12.1 µM with MALME-3M melanoma; 7.45 µM with EKVX NSCLC; 21.1 µM in the assay with HT29 colon; 9.75 µM in the assay with A498 renal; 15.5 µM in the assay with SN12C renal. Moreover, the TGI in the assay on ACHN renal was determined as 8.03 µM; with HCT-116 colon it was 11.3 µM; with HOP-62 NSCLC, 18.7 µM; with KM12 colon, 4.02 µM.
As to `COc1c(O)c(C=O)c2c(O)c(-c3c(C)cc4c(C(C)C)c(OC)c(O)c(C=O)c4c3O)c(C)cc2c1C(C)C`, the TGI was 10.7 µM in the assay with OVCAR-3 ovarian; 18.8 µM in the assay with MALME-3M melanoma; 17.7 µM in the assay on EKVX NSCLC; 15.3 µM in the assay on HT29 colon; 24.7 µM in the assay with A498 renal; 8.45 µM in the assay with SN12C renal. The TGI with ACHN renal amounted to 8.05 µM; in the assay with HCT-116 colon, 5.39 µM; in the assay on HOP-62 NSCLC, 9.18 µM; in the assay on KM12 colon, 16 µM.
In the case of `OCCO/N=C1\C(c2c(O)[nH]c3ccccc23)=Nc2ccccc21`, the TGI in the assay with OVCAR-3 ovarian is greater than 100 µM; in the assay with MALME-3M melanoma it was greater than 100 µM; in the assay with EKVX NSCLC it was greater than 100 µM; in the assay on HT29 colon, greater than 100 µM; in the assay on A498 renal, 0.875 µM; in the assay with SN12C renal, greater than 100 µM. Moreover, the TGI in the assay with ACHN renal, with HCT-116 colon, in the assay with HOP-62 NSCLC and in the assay with KM12 colon was greater than 100 µM throughout.
In the case of `N#CC1(C#N)NC(c2cccs2)C(C#N)(C#N)NC1c1cccs1` (stereo not given), the TGI in the assay on OVCAR-3 ovarian is 67.8 µM; with MALME-3M melanoma, greater than 100 µM; in the assay on EKVX NSCLC, greater than 100 µM; in the assay with HT29 colon it was greater than 100 µM; with A498 renal, 74.6 µM; in the assay on SN12C renal it was greater than 100 µM. Moreover, the TGI in the assay on ACHN renal, with HCT-116 colon, in the assay with HOP-62 NSCLC and in the assay on KM12 colon was greater than 100 µM each time.
For the molecule `OC1(c2ccccc2)CCN(Cc2c[nH]c3ccccc23)CC1`, the TGI with OVCAR-3 ovarian was greater than 100 µM; with MALME-3M melanoma, 52.4 µM; in the assay on EKVX NSCLC, greater than 100 µM; in the assay with HT29 colon, greater than 100 µM; in the assay on A498 renal it was greater than 100 µM; in the assay with SN12C renal, greater than 100 µM. The TGI in the assay on ACHN renal, with HCT-116 colon, with HOP-62 NSCLC and with KM12 colon was greater than 100 µM each time.
As for `Nc1ccc(S(=O)(=O)c2ccc(NCN3C(=O)NC(=O)C(=O)C3=O)cc2)cc1`, the TGI with OVCAR-3 ovarian, with MALME-3M melanoma, with EKVX NSCLC, in the assay on HT29 colon, in the assay with A498 renal and with SN12C renal was greater than 100 µM in each case. Further, the TGI in the assay with ACHN renal, with HCT-116 colon, in the assay on HOP-62 NSCLC and in the assay on KM12 colon was greater than 100 µM throughout.
Turning to `CC(NC(=O)C(NC(=O)CNC(=O)OC(C)(C)C)C(C)C)C(=O)Oc1c(Cl)c(Cl)c(Cl)c(Cl)c1Cl` (stereo not given), the TGI worked out at 28.5 µM in the assay on OVCAR-3 ovarian; 49.4 µM in the assay with MALME-3M melanoma; 83.8 µM with EKVX NSCLC; 68.5 µM in the assay on HT29 colon; 45 µM in the assay on A498 renal; 42 µM in the assay on SN12C renal. Moreover, the TGI in the assay on ACHN renal is 58.9 µM; in the assay on HCT-116 colon it was 31.2 µM; in the assay on HOP-62 NSCLC, 35.7 µM; in the assay on KM12 colon it was 30.4 µM.
`C[n+]1cccc2c(=O)c3ccccc3oc21`: the TGI in the assay on OVCAR-3 ovarian, in the assay with MALME-3M melanoma, in the assay on EKVX NSCLC, with HT29 colon, in the assay with A498 renal and in the assay with SN12C renal was greater than 100 µM each time. Further, the TGI with ACHN renal, with HCT-116 colon, in the assay with HOP-62 NSCLC and in the assay with KM12 colon was greater than 100 µM each time.
`O=[N+]([O-])c1ccc2sc(C=Nc3cnccn3)cc2c1`: the TGI in the assay with OVCAR-3 ovarian was greater than 100 µM; in the assay with MALME-3M melanoma, greater than 100 µM; in the assay on EKVX NSCLC it was greater than 100 µM; in the assay with HT29 colon, greater than 100 µM; in the assay with A498 renal it was 86 µM; with SN12C renal, greater than 100 µM. For the same molecule, the TGI in the assay with ACHN renal, in the assay with HCT-116 colon, with HOP-62 NSCLC and with KM12 colon was greater than 100 µM throughout.
Turning to `C[N+](C)(C)c1ccc(C(N)C(=O)O)cc1` (stereo not given), the TGI in the assay on OVCAR-3 ovarian, with MALME-3M melanoma, with EKVX NSCLC, with HT29 colon, in the assay with A498 renal and in the assay on SN12C renal was greater than 100 µM in each case. The TGI in the assay on ACHN renal, with HCT-116 colon, with HOP-62 NSCLC and in the assay with KM12 colon was greater than 100 µM each time.
Regarding `CSCCC(N)C(=O)NCCNc1ccc(NCCNC(=O)C(N)CCSC)c2c1C(=O)c1ccccc1C2=O` (stereo not given), the TGI amounted to 9.44 µM in the assay with OVCAR-3 ovarian; 6.6 µM in the assay with MALME-3M melanoma; 9.65 µM in the assay with EKVX NSCLC; 3.21 µM with HT29 colon; 3.83 µM in the assay with A498 renal; 2.55 µM with SN12C renal. Moreover, the TGI stood at 5.45 µM in the assay on ACHN renal, 2.16 µM with HCT-116 colon, 5.22 µM in the assay on HOP-62 NSCLC and 12.8 µM with KM12 colon.
`CCNC(=S)N=Nc1c(O)[nH]c2ccc([N+](=O)[O-])cc12`: the TGI in the assay with OVCAR-3 ovarian is greater than 100 µM; with MALME-3M melanoma, greater than 100 µM; with EKVX NSCLC it was greater than 100 µM; with HT29 colon it was greater than 100 µM; with A498 renal, 89.3 µM; in the assay with SN12C renal, greater than 100 µM. Besides, the TGI in the assay with ACHN renal, with HCT-116 colon, in the assay with HOP-62 NSCLC and with KM12 colon was greater than 100 µM throughout.
Regarding `CSCSSC`, the TGI in the assay with OVCAR-3 ovarian, in the assay with MALME-3M melanoma, in the assay on EKVX NSCLC, with HT29 colon, in the assay on A498 renal and in the assay with SN12C renal was greater than 100 µM in each case. Moreover, the TGI with ACHN renal, with HCT-116 colon, in the assay on HOP-62 NSCLC and in the assay with KM12 colon was greater than 100 µM in each case.
For the molecule `Cc1ccc([S@](=O)c2occc2C=O)cc1`, the TGI amounted to 6.41 µM in the assay with OVCAR-3 ovarian; 8.45 µM with MALME-3M melanoma; 43.6 µM in the assay with EKVX NSCLC; 27.2 µM in the assay on HT29 colon; 32.3 µM in the assay on A498 renal; 27.7 µM in the assay on SN12C renal. Besides, the TGI in the assay with ACHN renal came to 28.7 µM; in the assay with HCT-116 colon, 9.64 µM; with HOP-62 NSCLC, 35.2 µM; in the assay with KM12 colon, 31.5 µM.
For `C[C@H](NC(=O)C(Cc1ccccc1)(Cc1ccc(O)cn1)NC(=O)c1ccccc1)c1ccccc1` (stereo not given in full), the TGI in the assay on OVCAR-3 ovarian is 28.7 µM; with MALME-3M melanoma, 37.6 µM; in the assay with EKVX NSCLC it was 34.2 µM; in the assay on HT29 colon it was 33.4 µM; in the assay on A498 renal it was 33.5 µM; in the assay with SN12C renal it was 31.5 µM. The TGI in the assay with ACHN renal worked out at 43.2 µM; in the assay on HCT-116 colon it was 28.7 µM; in the assay on HOP-62 NSCLC it was 33.8 µM; in the assay on KM12 colon, 49.4 µM.
Take `CCNCCCn1c2c(c3ccc(Cl)cc3c1=O)C(=O)c1cc(OC)cnc1-2`: the GI50 with OVCAR-3 ovarian is 2.13 µM; in the assay on MALME-3M melanoma, 1.37 µM; in the assay on EKVX NSCLC it was 0.859 µM; with HT29 colon, 0.327 µM; in the assay with A498 renal, 0.358 µM; in the assay with SN12C renal, 0.675 µM. In addition, the GI50 with ACHN renal is 0.154 µM; in the assay with HCT-116 colon, 0.203 µM; in the assay with HOP-62 NSCLC, 0.122 µM; with KM12 colon it was 0.755 µM. The TGI with OVCAR-3 ovarian worked out at 19.6 µM; in the assay on MALME-3M melanoma, 3.12 µM; in the assay on EKVX NSCLC, 2.78 µM; in the assay with HT29 colon it was 2.03 µM; with A498 renal, 4.38 µM; in the assay on SN12C renal, 2.79 µM. Moreover, the TGI in the assay with ACHN renal came to 1.35 µM; with HCT-116 colon, 1.56 µM; in the assay on HOP-62 NSCLC it was 1.43 µM; with KM12 colon, 2.26 µM.
As to `Cc1ccc(OCC2OC(n3cnc4nc(N)nc(Cl)c43)CC2Oc2ccc(C)cc2)cc1` (stereo not given), the TGI was 41 µM in the assay on OVCAR-3 ovarian; 69.2 µM in the assay on MALME-3M melanoma; 69.4 µM in the assay on EKVX NSCLC; 71.1 µM in the assay with HT29 colon; 82.3 µM with A498 renal; 41.4 µM in the assay on SN12C renal. Besides, the TGI in the assay with ACHN renal is 35 µM; with HCT-116 colon, greater than 100 µM; in the assay on HOP-62 NSCLC, 52.6 µM; with KM12 colon, 44 µM.
In the case of `Cc1cc(-c2nc3cc(F)ccc3s2)ccc1NC(=O)[C@@H](N)CCCCN`, the TGI in the assay on OVCAR-3 ovarian was 22.5 µM; with MALME-3M melanoma, 33.2 µM; with EKVX NSCLC it was 16.5 µM; with HT29 colon, 9.61 µM; in the assay with A498 renal, 23.9 µM; with SN12C renal, 26 µM. In addition, the TGI in the assay with ACHN renal worked out at 19.3 µM; in the assay on HCT-116 colon, 7.67 µM; in the assay with HOP-62 NSCLC, 11 µM; in the assay on KM12 colon it was 3.36 µM.
